# Read-outs that look alike come from different tables or passages of the source.
# What was measured:
# [1] = biological target: T1, serotonin transporter (Rattus norvegicus, UniProt P31652); assay: Serotonin transporter affinity, 3H-paroxetine binding to frontal cortical membranes; design: species or system Sprague-Dawley rats; settings: 3H-paroxetine 0.1 nM, head also allows % Inh. @.1 µM
# T1 construct: frontal cortical membranes prepared from male Sprague-Dawley rats; from tissue; host or cells: frontal cortex membranes of male Sprague-Dawley rats
# T1 sequence (P31652 whole entry): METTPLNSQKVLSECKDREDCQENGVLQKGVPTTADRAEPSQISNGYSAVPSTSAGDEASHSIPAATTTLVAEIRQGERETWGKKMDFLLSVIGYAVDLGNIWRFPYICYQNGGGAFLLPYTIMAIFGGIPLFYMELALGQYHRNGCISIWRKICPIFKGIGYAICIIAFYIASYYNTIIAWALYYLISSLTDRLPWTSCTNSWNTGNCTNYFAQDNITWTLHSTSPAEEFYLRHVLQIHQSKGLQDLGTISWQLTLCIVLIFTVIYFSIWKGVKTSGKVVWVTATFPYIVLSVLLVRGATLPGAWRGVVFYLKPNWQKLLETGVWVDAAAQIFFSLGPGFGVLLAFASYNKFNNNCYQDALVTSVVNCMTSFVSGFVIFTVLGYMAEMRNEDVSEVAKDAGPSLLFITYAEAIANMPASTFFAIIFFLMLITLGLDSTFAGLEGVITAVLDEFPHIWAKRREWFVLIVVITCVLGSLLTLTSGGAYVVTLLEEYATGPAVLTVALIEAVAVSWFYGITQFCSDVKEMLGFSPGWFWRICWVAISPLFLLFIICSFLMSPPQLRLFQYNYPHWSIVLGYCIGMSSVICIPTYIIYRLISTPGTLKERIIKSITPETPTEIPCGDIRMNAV
# Description: Briefly, frontal cortical membranes prepared from male Sprague-Dawley rats were incubated with ^3H-paroxetine (0.1 nM) for 60 min at 25°C. All tubes also contained either vehicle, test compound (one to eight concentrations), or a saturating concentration of fluoxetine (10 µM) to define specific binding. All reactions were terminated by the addition of ice cold Tris buffer followed by rapid filtration using a Tom Tech filtration device to separate bound from free ^3H-paroxetine.
# [2] = biological target: T2, human 5-HT1A receptor (Homo sapiens, UniProt P08908); assay: 5-HT1A receptor binding assay with [3H]8-OH-DPAT in CHO cell membranes; settings: [3H]8-OH-DPAT 1.5 nM, membranes of CHO cells expressing human 5-HT1A receptor
# T2 construct: expressed in transfected cells
# T2 sequence (P08908 1-422): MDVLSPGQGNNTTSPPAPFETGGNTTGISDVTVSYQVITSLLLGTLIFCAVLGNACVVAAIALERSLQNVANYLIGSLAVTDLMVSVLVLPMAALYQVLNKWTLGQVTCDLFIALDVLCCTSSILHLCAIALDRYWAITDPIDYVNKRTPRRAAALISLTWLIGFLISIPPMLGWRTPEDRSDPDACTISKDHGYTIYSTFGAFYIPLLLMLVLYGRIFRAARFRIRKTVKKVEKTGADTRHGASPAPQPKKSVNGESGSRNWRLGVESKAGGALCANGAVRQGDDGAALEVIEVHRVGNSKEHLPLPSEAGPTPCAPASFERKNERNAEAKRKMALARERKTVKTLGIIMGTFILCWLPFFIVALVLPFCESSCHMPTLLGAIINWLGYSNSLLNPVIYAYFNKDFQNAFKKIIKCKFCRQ
# Description: A stable Chinese hamster ovary cell line expressing the human 5-HT1A receptor subtype (5H-HT1A.CHO cells) was employed throughout this procedure. Cells were maintained in DMEM supplemented with 10% fetal calf serum, non-essential amino acids and penicillin/ streptomycin.
# Cells were grown to 95-100% confluency as a monolayer before membranes were harvested for binding studies. Cells were gently scraped from the culture plates, transferred to centrifuge tubes, and washed twice by centrifugation (at 2000 rpm for 10 min., 4°C) in buffer (50 mM Tris; pH 7.5). The resulting pellets were aliquoted and stored at -80•C until needed. On the day of assay, the cells were thawed on ice, and resuspended in buffer. Studies were conducted using [^3H]8-OH-DPAT as the radioligand. The binding assay was performed in 96 well microtiter plates in a final total volume of 250 µL of buffer. […] Non-specific binding was determined in the presence of 10 µM 5HT. Saturation analysis was conducted by using [^3H]8-OH-DPAT at concentrations ranging from 0.3-30 nM. Following a 30 minute incubation at room temperature, the reaction was terminated by the addition of ice cold buffer and rapid filtration using a M-96 Brandel Cell Harvester through a GF/B filter presoaked for 30 minutes in 0.5% polyethyleneimine.
# [3] = read-out: ST (Ki, nM, % Inh. @.1 µM)
SMILES,"Ki [1, 3]",Ki [2],"Ki ([1]; ST (Ki, nM, % Inh. @.1 µM))"
"CCN1CC(CNCCCc2c[nH]c3ccc(F)cc23)Oc2ccccc21 (stereo not drawn) [Example 13, [3-(5-Fluoro-1H-indol-3-yl)-propyl]-(4-ethyl-3,4-dihydro-2H-benzo[1,4]oxazin-2-yl-methyl)-amine]",15 nM,15.3 nM,
CC(C)CN1CC(CNCCCc2c[nH]c3ccc(F)cc23)Oc2ccccc21 (stereo not drawn) [Example 10],,8.15 nM,85 nM
"Fc1ccc2[nH]cc(CCCNCC3CNc4ccccc4O3)c2c1 (stereo not drawn) [Example 16, (3,4-Dihydro-2H-benzo[1,4]oxazin-2ylmethyl)-[3-(5-fluoro-1H-indol-3-yl)-propyl]-amine]",16 nM,11 nM,
"CCCN1CC(CNCCCc2c[nH]c3ccc(F)cc23)Oc2ccccc21 (stereo not drawn) [Example 14, [3-(5-Fluoro-1H-indol-3-yl)-propyl]-(4-propyl-3,4-dihydro-2H-benzo[1,4]oxazin-2-yl-methyl)-amine]",26 nM,16.8 nM,
"CN1CC(CNCCCc2c[nH]c3ccc(F)cc23)Oc2cc(Cl)ccc21 (stereo not drawn) [Example 15, (7-Chloro-4-methyl-3,4-dihydro-2H-benzo[1,4]oxazin-2ylmethyl)-[3-(5-fluoro-1H-indol-3-yl)-propyl]-amine]",44 nM,75.2 nM,
CN1CC(CNCCCc2c[nH]c3ccccc23)Oc2ccccc21 (stereo not drawn) [Example 2],,5.9 nM,112 nM
"CC(C)N1CC(CNCCCc2c[nH]c3ccc(F)cc23)Oc2ccccc21 (stereo not drawn) [Example 8, [3-(5-Fluoro-1H-indol-3-yl)-propyl]-(4-isopropyl-3,4-dihydro-2H-benzo[1,4]oxazin-2yl-methyl)-amine]",25 nM,2.8 nM,
"Fc1ccc2[nH]cc(CCCNCC3CN(c4ccccc4)c4ccccc4O3)c2c1 (stereo not drawn) [Example 11, [3-(5-Fluoro-1H-indol-3-yl)-propyl]-(4-phenyl-3,4-dihydro-2H-benzo[1,4]oxazin-2-yl-methyl)-amine]",43 nM,,
"c1ccc(CN2CC(CNCCCc3c[nH]c4ccccc34)Oc3ccccc32)cc1 (stereo not drawn) [Example 3, (4-Benzyl-3,4-dihydro-2H-benzo[1,4]oxazin-2ylmethyl)-[3-(1H-indo-3-yl)-propyl]-amine]",,7.8 nM,21 nM
"c1ccc(N2CC(CNCCCc3c[nH]c4ccccc34)Oc3ccccc32)cc1 (stereo not drawn) [Example 7, [3-(1H-Indol-3-yl)-propyl]-4-phenyl-3,(4-dihydro-2H-benzo[1,4]oxazin-2-yl-methyl)-amine]",,30.2 nM,
"Fc1ccc2[nH]cc(CCCNCC3COc4ccccc4N3)c2c1 (stereo not drawn) [Example 20, (3,4-Dihydro-2H-benzo[1,4]oxazin-3-yl-methyl)-[3-(5-fluoro-1H-indol-3-yl)propyl]-amine]",,12.3 nM,
"Fc1ccc2[nH]cc(CCCNCC3CN(c4ccccc4)c4ccccc4O3)c2c1 (single isomer, unassigned; (-)) [Example 18]",,,34 nM
"Fc1ccc2[nH]cc(CCCNCC3CN(c4ccccc4)c4ccccc4O3)c2c1 (single isomer, unassigned; (+)) [Example 19]",,,40 nM
c1ccc2c(c1)NCC(CNCCCc1c[nH]c3ccccc13)O2 (stereo not drawn) [Example 1],79 nM,6.9 nM,
COc1ccc2c(c1)OC(CNCCCc1c[nH]c3ccc(F)cc13)CN2 (stereo not drawn) [Example 17],15 nM,103 nM,
"CN1CC(CNCCCc2c[nH]c3ccc(F)cc23)Oc2ccccc21 (stereo not drawn) [Example 5, [3-(5-Fluoro-1H-indol-3-yl)-propyl]-(4-methyl-3,4-dihydro-2H-benzo[1,4]oxazin-2-yl-methyl)-amine]",5.7 nM,8.5 nM,
